Assay results as given in US20190046556A1, “Methods and Pharmaceutical Compositions for the Prophylactic Treatment of Peritoneal Carcinomatosis” (INSERM (Institut National de la Sante et de la Recherche …, priority 2016, published 2019).

Test system: OVCAR
Type: in vivo
Settings: 21 days, nude mice
Excerpt: For that experiment, a human ovarian cancer cell line, named OVCAR is used, as prior exposed for the CT-26 cells. The only difference is the mice receiving cell injection, because OVACR is a human cancer cell, a nude mice animal is used because of immune deficiency of the animal.

Compound: O=C1[O][Pt]2([NH][C@@H]3CCCC[C@H]3[NH]2)[O]C1=O [Oxaliplatin]
- Mean PCI (peritoneal cancer index): 3,7
